Results from patent US20230265116A1, “DEGRADATION OF (EGFR) BY CONJUGATION OF EGFR INHIBITORS WITH E3 LIGASE LIGAND AND METHODS OF USE” (BEIGENE, LTD., priority 2020, published 2023).

What was measured:
[1] = system: EGFR Del19/T790M/C797S (BaF3-DTC cells); experiment: EGFR degradation HTRF assay, BaF3-DTC cells; assay type: cell-based; conditions: 16h treatment; for DTC Dmax (%): maximum percentage of degradation; for DC50: read-out: DTC DC50
Experimental: BaF3 WT(wild type), BaF3-LTC(L858R/T790M/C797S) and BaF3-DTC(Del19/T790M/C797S) cells are treated with compounds diluted in 0.2% DMSO cell culture medium and incubate for 16h, 37° C., 5% CO2, H1975-#36, H1975-#28, H1975-#23 and HCC827 cells are treated with compounds diluted in 0.2% DMSO cell culture medium on day 2, incubate for 16h, 37° C., 5% CO2.the final concentriation of compounds in all assay is start with 10 uM, 5-fold dilution, total 8 doses were included.
After 16h treatment, add HTRF lysis buffer to each well; seal the plate and incubate 1 hour at room temperature on a plate shaker; Once the cells are lysed, 16 μL of cell lysate are transferred to a PE 384-well HTRF detection plate; 4 μL of pre-mixed HTRF antibodies are added to each well; Cover the plate with a plate sealer, spin 1000 rpm for 1 min, Incubate overnight at room temperature; Read on BMG PheraStar with HTRF protocol (337 nm-665 nm-620 nm).
The inhibition (degradation) percentage of the compound was calculated by the following equation: Inhibition percentage of Compound=100-100×(Signal-low control)/(High control-low control), wherein signal=each test compound group
High control=Cell group with added DMSO and without compound, indicating microplate readings without EGFR degradation;
Dmax is the maximum percentage of inhibition (degradation).
The IC50 (DC50) value of a compound can be obtained by fitting the following equation
Y=Bottom+(TOP−Bottom)/(1+((IC50/X)^hillslope))
Wherein, X and Y are known values, and IC50, Hillslope, Top and Bottom are the parameters obtained by fitting with software. Y is the inhibition percentage (calculated from the equation), X is the concentration of the compound; IC50 is the concentration of the compound when the 50% inhibition is reached. The smaller the IC50 value is, the stronger the inhibitory ability of the compound is. Vice versa, the higher the IC50 value is, the weaker the inhibitory ability of the compound is; Hillslope represents the slope of the fitted curve, generally around 1*; Bottom represents the minimum value of the curve obtained by data fitting, which is generally 0%±20%; Top represents the maximum value of the curve obtained by data fitting, which is generally 100%±20%. The experimental data were fitted by calculating and analyzing with Dotmatics data analysis software.

[2] = target: T1, EGFR L858R/T790M/C797S (BaF3-LTC cells) (Homo sapiens, UniProt P00533, C797S/L858R/T790M); experiment: EGFR degradation HTRF assay, BaF3-LTC cells; assay type: cell-based; conditions: BaF3-LTC, 16h treatment; for Dmax: maximum percentage of degradation, read-out: LTC Dmax (%); for DC50: read-out: LTC DC50
T1 construct: expressed in transfected cells; host or cells: BaF3
T1 sequence (P00533 25-1210 T790M/C797S/L858R): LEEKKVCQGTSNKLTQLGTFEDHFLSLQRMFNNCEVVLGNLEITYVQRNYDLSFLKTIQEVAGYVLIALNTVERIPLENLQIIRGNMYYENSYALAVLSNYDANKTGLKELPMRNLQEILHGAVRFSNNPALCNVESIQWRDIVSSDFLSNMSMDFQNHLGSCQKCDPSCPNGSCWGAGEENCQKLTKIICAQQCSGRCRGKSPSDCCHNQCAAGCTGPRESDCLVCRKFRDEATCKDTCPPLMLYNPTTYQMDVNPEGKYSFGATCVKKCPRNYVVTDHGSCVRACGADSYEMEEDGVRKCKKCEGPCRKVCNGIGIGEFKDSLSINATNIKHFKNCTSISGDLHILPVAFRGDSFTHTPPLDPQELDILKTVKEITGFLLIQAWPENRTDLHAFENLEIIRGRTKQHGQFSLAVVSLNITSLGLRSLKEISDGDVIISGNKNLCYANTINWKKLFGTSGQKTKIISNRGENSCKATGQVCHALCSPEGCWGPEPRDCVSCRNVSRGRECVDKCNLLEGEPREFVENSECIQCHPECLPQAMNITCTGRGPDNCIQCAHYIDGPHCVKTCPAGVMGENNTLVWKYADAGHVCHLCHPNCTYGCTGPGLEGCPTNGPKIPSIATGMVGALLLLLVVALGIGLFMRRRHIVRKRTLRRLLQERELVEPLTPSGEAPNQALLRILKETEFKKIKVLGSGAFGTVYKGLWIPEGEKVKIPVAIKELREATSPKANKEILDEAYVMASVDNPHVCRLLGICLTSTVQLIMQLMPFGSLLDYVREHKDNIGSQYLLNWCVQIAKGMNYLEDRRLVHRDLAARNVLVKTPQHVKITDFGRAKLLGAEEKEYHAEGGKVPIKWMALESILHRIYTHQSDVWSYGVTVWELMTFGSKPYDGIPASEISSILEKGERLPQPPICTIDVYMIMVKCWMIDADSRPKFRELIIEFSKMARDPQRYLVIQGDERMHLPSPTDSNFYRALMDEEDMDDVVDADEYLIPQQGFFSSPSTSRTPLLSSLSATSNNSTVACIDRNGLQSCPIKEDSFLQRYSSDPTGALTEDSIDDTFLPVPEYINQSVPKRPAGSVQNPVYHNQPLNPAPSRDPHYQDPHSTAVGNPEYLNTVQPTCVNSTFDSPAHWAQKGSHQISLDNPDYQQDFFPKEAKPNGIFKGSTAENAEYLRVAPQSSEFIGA
Outline: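 Cells treated 16 h at 37 °C, 5% CO2 in medium with 0.2% DMSO; top final concentration 10 uM, 5-fold dilution, 8 doses. Lysates read by HTRF (665/620 nm); degradation % versus DMSO high control, DC50 from four-parameter fit, Dmax as maximal degradation.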

Row | DC50 [1] [nM] | Dmax [2] [%] | DC50 [2] [nM] | SMILES | DTC Dmax (%) [1] [%]
1 | 15.2 | 85 | 21.5 | CCc1cc(Nc2ncc(Br)c(Nc3ccc4nccnc4c3P(C)(C)=O)n2)c(OC)cc1N1CCC(N2CCN(CCCCc3cc(F)c(C4CCC(=O)NC4=O)c(F)c3)CC2)CC1 (centres unmarked) [Example 282, 3-(4-(4-(4-(1-(4-((5-bromo-4-((5-(dimethylphosphoryl)quinoxalin-6-yl)amino)pyrimidin-2-yl)amino)-2-ethyl-5-methoxyphenyl)piperidin-4-yl)piperazin-1-yl)butyl)-2,6-difluorophenyl)piperidine-2,6-dione] | 93.51
2 | 5.34 | 90.1 | 18.9 | CCc1cc(Nc2ncc(Br)c(Nc3ccc4ncsc4c3P(C)(C)=O)n2)c(OC)cc1N1CCC(N2CCN(CCc3cc(F)c(C4CCC(=O)NC4=O)c(F)c3)CC2)CC1 (centres unmarked) [Example 714, 3-(4-(2-(4-(1-(4-((5-bromo-4-((7-(dimethylphosphoryl)benzo[d]thiazol-6-yl)amino)pyrimidin-2-yl)amino)-2-ethyl-5-methoxyphenyl)piperidin-4-yl)piperazin-1-yl)ethyl)-2,6-difluorophenyl)piperidine-2,6-dione] | 96.7
3 | 1.47 | 93.9 | 4.13 | CCc1cc(Nc2ncc(Br)c(Nc3ccc4nc(C)ccc4c3P(C)(C)=O)n2)c(OC)cc1N1CCC(N2CCN(C(=O)[C@@H]3CCN(c4cc(F)c(C5CCC(=O)NC5=O)c(F)c4)C3)CC2)CC1 (stereo partly drawn) [Example 208, 3-(4-((R)-3-(4-(1-(4-((5-bromo-4-((5-(dimethylphosphoryl)-2-methylquinolin-6-yl)amino)pyrimidin-2-yl)amino)-2-ethyl-5-methoxyphenyl)piperidin-4-yl)piperazine-1-carbonyl)pyrrolidin-1-yl)-2,6-difluorophenyl)piperidine-2,6-dione] | 97.62
4 | 11.9 | 81.4 | 30.1 | CCc1cc(Nc2ncc(Br)c(Nc3ccc4nccnc4c3P(C)(C)=O)n2)c(OC)cc1N1CCC(N2CCN(C[C@H]3C[C@H](N(C)c4ccc(C5CCC(=O)NC5=O)cc4)C3)CC2)CC1 (some centres unmarked) [Example 245, 3-(4-(((1r,3r)-3-((4-(1-(4-((5-bromo-4-((5-(dimethylphosphoryl)quinoxalin-6-yl)amino)pyrimidin-2-yl)amino)-2-ethyl-5-methoxyphenyl)piperidin-4-yl)piperazin-1-yl)methyl)cyclobutyl)(methyl)amino)phenyl)piperidine-2,6-dione] | 87.52
5 | 17.4 | 85.3 | 43.7 | CCc1cc(Nc2ncc(Br)c(Nc3ccc4nccnc4c3P(C)(C)=O)n2)c(OC)cc1N1CCC(N2CCN(CCc3ccc(C4CCC(=O)NC4=O)c(F)c3)[C@@H](COC)C2)CC1 (stereo partly drawn) [Example 293, 3-(4-(2-((R)-4-(1-(4-((5-bromo-4-((5-(dimethylphosphoryl)quinoxalin-6-yl)amino)pyrimidin-2-yl)amino)-2-ethyl-5-methoxyphenyl)piperidin-4-yl)-2-(methoxymethyl)piperazin-1-yl)ethyl)-2-fluorophenyl)piperidine-2,6-dione] | 83.85
6 | 1.91 | 93.2 | 6.11 | CCc1cc(Nc2ncc(Br)c(Nc3ccc4nc(C)ccc4c3P(C)(C)=O)n2)c(OC)cc1N1CCC(N2CCN(CCc3ccc4c(c3)N(C3CCC(=O)NC3=O)C(=O)C4(C)C)CC2)CC1 (centres unmarked) [Example 413, 3-(6-(2-(4-(1-(4-((5-bromo-4-((5-(dimethylphosphoryl)-2-methylquinolin-6-yl)amino)pyrimidin-2-yl)amino)-2-ethyl-5-methoxyphenyl)piperidin-4-yl)piperazin-1-yl)ethyl)-3,3-dimethyl-2-oxoindolin-1-yl)piperidine-2,6-dione] | 95.66
7 | 9.2 | 82.2 | 102 | CCc1cc(Nc2ncc(Br)c(Nc3ccc4nccnc4c3P(C)(C)=O)n2)c(OC)cc1N1CCC(N2CCN(CCc3ccc(C4CCC(=O)NC4=O)cc3F)CC2)CC1 (centres unmarked) [Example 6, 3-(4-(2-(4-(1-(4-((5-bromo-4-((5-(dimethylphosphoryl)quinoxalin-6-yl)amino)pyrimidin-2-yl)amino)-2-ethyl-5-methoxyphenyl)piperidin-4-yl)piperazin-1-yl)ethyl)-3-fluorophenyl)piperidine-2,6-dione] | 81.2
8 | 4.34 | 89 | 6.67 | CCc1cc(Nc2ncc(Br)c(Nc3ccc4nc(C5CC5)ccc4c3P(C)(C)=O)n2)c(OC)cc1N1CCC(N2CCN(CC3CN(c4ccc5c(c4)CN(C4CCC(=O)NC4=O)C5=O)C3)CC2)CC1 (centres unmarked) [Example 426, 3-(5-(3-((4-(1-(4-((5-bromo-4-((2-cyclopropyl-5-(dimethylphosphoryl)quinolin-6-yl)amino)pyrimidin-2-yl)amino)-2-ethyl-5-methoxyphenyl)piperidin-4-yl)piperazin-1-yl)methyl)azetidin-1-yl)-1-oxoisoindolin-2-yl)piperidine-2,6-dione] | 91.88
9 | 8.17 | 86.1 | 16.1 | CCc1cc(Nc2ncc(Br)c(Nc3ccc4nc(C)ccc4c3P(C)(C)=O)n2)c(OC)cc1N1CCC(N2CCN(CCC3CCN(c4cc(F)c(C5CCC(=O)NC5=O)c(F)c4)CC3)CC2)CC1 (centres unmarked) [Example 312, 3-(4-(4-(2-(4-(1-(4-((5-bromo-4-((5-(dimethylphosphoryl)-2-methylquinolin-6-yl)amino)pyrimidin-2-yl)amino)-2-ethyl-5-methoxyphenyl)piperidin-4-yl)piperazin-1-yl)ethyl)piperidin-1-yl)-2,6-difluorophenyl)piperidine-2,6-dione] | 88.59
10 | 10.6 | 86.7 | 41.2 | CCc1cc(Nc2ncc(Br)c(Nc3ccc4nccnc4c3P(C)(C)=O)n2)c(OC)cc1N1CCC(N2CCN(CC3CCN(c4cc(F)c(C5CCC(=O)NC5=O)c(F)c4)CC3)CC2)CC1 (centres unmarked) [Example 303, 3-(4-(4-((4-(1-(4-((5-bromo-4-((5-(dimethylphosphoryl)quinoxalin-6-yl)amino)pyrimidin-2-yl)amino)-2-ethyl-5-methoxyphenyl)piperidin-4-yl)piperazin-1-yl)methyl)piperidin-1-yl)-2,6-difluorophenyl)piperidine-2,6-dione] | 90.93
11 | 2.8 | 88.6 | 11.1 | CCc1cc(Nc2ncc(Br)c(Nc3ccc4cc(C)ncc4c3P(C)(C)=O)n2)c(OC)cc1N1CCC(N2CCN(CCc3cc(F)c(C4CCC(=O)NC4=O)c(F)c3)CC2)CC1 (centres unmarked) [Example 200, 3-(4-(2-(4-(1-(4-((5-bromo-4-((8-(dimethylphosphoryl)-3-methylisoquinolin-7-yl)amino)pyrimidin-2-yl)amino)-2-ethyl-5-methoxyphenyl)piperidin-4-yl)piperazin-1-yl)ethyl)-2,6-difluorophenyl)piperidine-2,6-dione] | 93.3
